How the values were obtained:
Assay type in all cases: functional, cell-based
HEp-2 = assay: Antiproliferative activity against human Hep2 cells after 48 hrs by sulforhodamine B assay; details: HEp-2, 48 h
MCF7 = assay: Antiproliferative activity against human MCF7 cells after 48 hrs by sulforhodamine B assay; details: MCF7, 48 h
A549 = assay: Antiproliferative activity against human A549 cells after 48 hrs by sulforhodamine B assay; details: A549, 48 h
PC-3 = assay: Antiproliferative activity against human PC3 cells after 48 hrs by sulforhodamine B assay; details: PC-3, 48 h
HCT-116 = assay: Antiproliferative activity against human HCT116 cells after 48 hrs by sulforhodamine B assay; details: HCT-116, 48 h
THP-1 = assay: Antiproliferative activity against human THP1 cells after 48 hrs by sulforhodamine B assay; details: THP-1, 48 h

| SMILES | IC50 (HEp-2) [µM] | IC50 (MCF7) [µM] | IC50 (A549) [µM] | IC50 (PC-3) [µM] | IC50 (HCT-116) [µM] | IC50 (THP-1) [µM] |
| --- | --- | --- | --- | --- | --- | --- |
| CC1=C2[C@H]3OC(=O)C4(CC(c5ccc(Br)c(F)c5)=NO4)[C@@H]3CC[C@@]2(C)C=CC1=O (stereo partly specified) | 33 | 0.9 | 3.1 | 2 | 15 | 0.6 |
| CC1=C2[C@H]3OC(=O)C4(C[C@@H](c5ccc(F)c(Br)c5)N(c5ccccc5)O4)[C@@H]3CC[C@@]2(C)C=CC1=O (stereo partly specified) | 100 | 0.7 | 100 | 0.8 | 4.3 | 2.7 |
| CC1=C2[C@H]3OC(=O)C4(C[C@H](c5ccc(F)c(Br)c5)N(c5ccccc5)O4)[C@@H]3CC[C@@]2(C)C=CC1=O (stereo partly specified) | 3.7 | 0.2 | 19 | 0.9 | 100 | 2.3 |
| CC1=C2[C@H]3OC(=O)C4(CC(c5ccccc5)=NO4)[C@@H]3CC[C@@]2(C)C=CC1=O (stereo partly specified) | 100 | 100 | 100 | 78 | 100 | 100 |
| O=c1[nH]cc(F)c(=O)[nH]1 [FLUOROURACIL] | 4.5 |  | 4.9 | 2.2 |  | 1 |
| CC1=C2[C@H]3OC(=O)C4(C[C@@H](c5cccc([N+](=O)[O-])c5)N(c5ccccc5)O4)[C@@H]3CC[C@@]2(C)C=CC1=O (stereo partly specified) | 100 | 23 | 10 | 0.9 | 48 | 42 |
| CC1=C2[C@H]3OC(=O)C4(C[C@H](c5cccc([N+](=O)[O-])c5)N(c5ccccc5)O4)[C@@H]3CC[C@@]2(C)C=CC1=O (stereo partly specified) | 100 | 14 | 81 | 0.3 | 100 | 100 |
| CC1=C2[C@H]3OC(=O)C4(CC(c5ccccc5Cl)=NO4)[C@@H]3CC[C@@]2(C)C=CC1=O (stereo partly specified) | 7.3 | 0.5 | 5.9 | 0.9 | 100 | 0.2 |
| CC1=C2[C@H]3OC(=O)C4(CC(c5ccc(Br)cc5)=NO4)[C@@H]3CC[C@@]2(C)C=CC1=O (stereo partly specified) | 100 | 0.1 | 58 | 100 | 100 | 100 |
| COc1cccc2c1C(=O)c1c(O)c3c(c(O)c1C2=O)C[C@@](O)(C(=O)CO)C[C@@H]3O[C@H]1C[C@H](N)[C@H](O)[C@H](C)O1 [DOXORUBICIN] |  | 0.5 |  | 6 |  |  |
| COc1ccc([C@H]2CC3(ON2c2ccccc2)C(=O)O[C@@H]2C4=C(C)C(=O)C=C[C@]4(C)CC[C@H]23)cc1Br (stereo partly specified) | 100 | 100 | 8.5 | 0.1 | 100 | 100 |
| CC1=C2[C@H]3OC(=O)C4(CC(c5ccc(Cl)cc5Cl)=NO4)[C@@H]3CC[C@@]2(C)C=CC1=O (stereo partly specified) | 29 | 95 | 13 | 26 | 29 | 35 |
| COc1ccc(C2=NOC3(C2)C(=O)O[C@@H]2C4=C(C)C(=O)C=C[C@]4(C)CC[C@H]23)cc1Br (stereo partly specified) | 100 | 100 | 100 | 100 | 50 | 21 |
| CC1=C2[C@H]3OC(=O)C4(CC(c5ccc([N+](=O)[O-])cc5)=NO4)[C@@H]3CC[C@@]2(C)C=CC1=O (stereo partly specified) | 100 | 56 | 100 | 100 | 55 | 100 |
| CC1=C2[C@H]3OC(=O)C4(C[C@@H](c5cc(Cl)ccc5Cl)N(c5ccccc5)O4)[C@@H]3CC[C@@]2(C)C=CC1=O (stereo partly specified) | 0.6 | 0.5 | 55 | 0.9 | 100 | 3.9 |
| CC1=C2[C@H]3OC(=O)C4(CC(c5cc(Cl)ccc5Cl)=NO4)[C@@H]3CC[C@@]2(C)C=CC1=O (stereo partly specified) | 100 | 39 | 100 | 100 | 61 | 100 |
| COc1ccc([C@@H]2CC3(ON2c2ccccc2)C(=O)O[C@@H]2C4=C(C)C(=O)C=C[C@]4(C)CC[C@H]23)cc1Br (stereo partly specified) | 100 | 50 | 2.7 | 0.1 | 45 | 100 |
| CC1=C2[C@H]3OC(=O)C4(CC(c5ccc(O)cc5)=NO4)[C@@H]3CC[C@@]2(C)C=CC1=O (stereo partly specified) | 40 | 100 | 3.8 | 55 | 8.2 | 100 |
| CC1=C2[C@H]3OC(=O)C4(C[C@@H](c5cc(F)cc(F)c5)N(c5ccccc5)O4)[C@@H]3CC[C@@]2(C)C=CC1=O (stereo partly specified) | 100 | 3.9 | 14 | 1.4 | 28 | 0.8 |
| CC1=C2[C@H]3OC(=O)C4(C[C@@H](c5cccc6ccccc56)N(c5ccccc5)O4)[C@@H]3CC[C@@]2(C)C=CC1=O (stereo partly specified) | 100 | 82 | 3.3 | 0.7 | 100 | 59 |
| CC1=C2[C@H]3OC(=O)C4(CC(c5cc(F)cc(F)c5)=NO4)[C@@H]3CC[C@@]2(C)C=CC1=O (stereo partly specified) | 100 | 0.5 | 8.2 | 2.2 | 100 | 0.4 |
| CC1=C2[C@H]3OC(=O)C4(C[C@H](c5ccc([N+](=O)[O-])cc5)N(c5ccccc5)O4)[C@@H]3CC[C@@]2(C)C=CC1=O (stereo partly specified) | 14 | 0.7 | 66 | 0.5 | 100 | 0.1 |
| CC1=C2[C@H]3OC(=O)C4(C[C@@H](c5ccc([N+](=O)[O-])cc5)N(c5ccccc5)O4)[C@@H]3CC[C@@]2(C)C=CC1=O (single isomer, unassigned) | 100 | 0.9 | 66 | 0.6 | 100 | 0.1 |
| CC1=C2[C@H]3OC(=O)C4(C[C@H](c5cccc6ccccc56)N(c5ccccc5)O4)[C@@H]3CC[C@@]2(C)C=CC1=O (stereo partly specified) | 100 | 14 | 1.4 | 0.6 | 100 | 100 |
| CC1=C2[C@H]3OC(=O)C4(C[C@H](c5cc(Cl)ccc5Cl)N(c5ccccc5)O4)[C@@H]3CC[C@@]2(C)C=CC1=O (stereo partly specified) | 100 | 0.1 | 77 | 0.7 | 32 | 0.2 |
| CC1=C2[C@H]3OC(=O)C4(CC(c5c6ccccc6cc6ccccc56)=NO4)[C@@H]3CC[C@@]2(C)C=CC1=O (stereo partly specified) | 50 | 0.2 | 45 | 0.3 | 45 | 0.8 |
| CO[C@@]12[C@H](COC(N)=O)C3=C(C(=O)C(C)=C(N)C3=O)N1C[C@@H]1N[C@@H]12 [MITOMYCIN] |  |  |  |  | 0.5 |  |

— ChEMBL document CHEMBL2375213, “Synthesis and anticancer activity of novel spiro-isoxazoline and spiro-isoxazolidine derivatives of α-santonin” (Eur J Med Chem, 2013)
